Earlier results in patent US20060264384A1, “Compositions and methods for treatment for neoplasms” (priority 2005, published 2006).

Structure (SMILES)	solubility in organic solvents	solubility in water
CCN(CC)C(=S)SSC(=S)N(CC)CC [Disulfiram]	soluble in solvents such as alcohol, ether, acetone, and benzene	barely soluble in water
CCc1c2c(nc3ccc(OC(=O)N4CCC(N5CCCCC5)CC4)cc13)-c1cc3c(c(=O)n1C2)COC(=O)[C@]3(O)CC [Irinotecan]	slightly soluble	slightly soluble
CC[C@@]1(O)C(=O)OCc2c1cc1n(c2=O)Cc2cc3c(CN(C)C)c(O)ccc3nc2-1 [Topotecan]	–	up to 1 mg/ml
